From US20240100170A1, “CYCLIC-AMP RESPONSE ELEMENT BINDING PROTEIN (CBP) AND/OR ADENOVIRAL E1A BINDING PROTEIN OF 300 KDA (P300) DEGRADATION COMPOUNDS AND METHODS OF USE” (CULLGEN (SHANGHAI), INC., priority 2020, published 2024)
“Also recorded” adds a separate entry of the source.

Assays:
[1] = target: T1, P300 (Homo sapiens, UniProt Q09472); assay: P300 protein level by immunoblotting in LNCaP cells; format: cell-based; parameters: LNCaP or 22RV1 cells that express CBP/P300 proteins were treated with GNE-781 or the bivalent compounds; endogenous in cells; host or cells: LNCaP or 22RV1 (not given); details: for degradation of P300 in combination with pomalidomide, MG-132, Bortezomib or MLN4924: single dose, FIG. 8; for P300 protein levels: various concentrations, compound vs analogue that lost cereblon binding, FIG. 7A
Method: (§1) Specific exemplary bivalent compounds were characterized in LNCaP or 22RV1 cells. LNCaP or 22RV1 cells that express CBP/P300 proteins were treated with GNE-781 or the bivalent compounds disclosed herein (P-001 to P-265) for indicated hours. Cells were collected, lysed and subject to immunoblotting using an antibody specific to P300 or CBP proteins. Tubulin or vinculin was included as the loading control. DMSO was used as the negative control.
(§2) LNCaP (clone FGC), 22RV1 and other cells were cultured at 37° C. with 5% CO 2 in RPMI 1640 Medium supplemented with 10% fetal bovine serum. Cells were authenticated using the short tandem repeat (STR) assays. Mycoplasma test results were negative.
(§3) Cultured cells or tissue chunks were washed with cold PBS once and lysed in cold RIPA buffer supplemented with protease inhibitors and phosphatase inhibitors (Beyotime Biotechnology). The solutions were then incubated at 4° C. for 30 minutes with gentle agitation to fully lyse cells. Cell lysates were centrifuged at 13,000 rpm for 10 minutes at 4° C. and pellets were discarded. Total protein concentrations in the lysates were determined by BCA assays (Beyotime Biotechnology). Cell lysates were mixed with Laemmli loading buffer to 1 X and heated at 99° C. for 5 min. Proteins were resolved on SDS-PAGE and visualized by chemiluminescence. Images were taken by a ChemiDoc MP Imaging system (Bio-Rad). Protein bands were quantitated using the accompanied software provided by Bio-Rad.

[2] = target: T1, P300; assay: P300 protein level by immunoblotting in 22RV1 cells; format: cell-based; parameters: LNCaP or 22RV1 cells that express CBP/P300 proteins were treated with GNE-781 or the bivalent compounds; endogenous in cells; host or cells: LNCaP or 22RV1 (not given); details: various concentrations, compound vs analogue that lost cereblon binding, FIG. 7B
Method: as §1, §2
as §3, with “Proteins were resolved on SDS-PAGE and visualized by chemiluminescence. Images were taken by a ChemiDoc MP Imaging system (Bio-Rad).” left out

[3] = target: T1, P300; assay: P300 immunoblotting in 22RV1 subcutaneous xenograft tumors; format: in vivo, athymic nude mice; parameters: from tissue; host or cells: 22RV1 subcutaneous xenograft tumours in athymic nude mice; details: single dose 40 mg/kg, intraperitoneally or orally, six hours after administration; FIG. 9
Method: (§4) In addition to cultured cells, athymic nude mice bearing 22RV1 subcutaneous xenograft tumors at the right flank were intraperitoneally or orally treated with 40 mg/kg bivalent compounds. Six hours after drug administration, animals were sacrificed for immunoblotting of P300 and CBP in homogenized xenograft tumor masses. […] Moreover, ICR mice were orally treated with 40 mg/kg bivalent compounds. Six hours after drug administration, animals were sacrificed for immunoblotting of CBP in homogenized lung tissues.
(§5) Athymic nude mice bearing 22RV1 subcutaneous xenograft tumors at the right flank were intraperitoneally or orally treated with selected bivalent compounds at 40 mg/kg. Six hours after drug administration, animals were sacrificed, and xenograft tumors were collected for immunoblotting of P300 and CBP.
as §3
(§6) All animal experiments were performed under protocols approved by the Institutional Animal Care and Use Committee (IACUC) of Cullgen. Athymic nude mice (male, 5-weeks old) received 5 million 22RV1 cells subcutaneously inoculated at the right flank site. Twenty days following inoculation, tumors were approxmiately 500 mm^3 in size. Tumor-bearing mice were treated intraperitoneally or via oral gavage with vehicle or bivalent compounds at indicated doses. […]

[4] = target: T2, CBP (Homo sapiens, UniProt Q92793); assay: CBP immunoblotting in 22RV1 subcutaneous xenograft tumors; format: in vivo, athymic nude mice; parameters: from tissue; host or cells: 22RV1 subcutaneous xenograft tumours in athymic nude mice; details: single dose 40 mg/kg, intraperitoneally or orally, six hours after administration; FIG. 9
Method: as §4, §5, §3, §6

[5] = target: T2, CBP; assay: CBP protein level by immunoblotting in LNCaP cells; format: cell-based; parameters: LNCaP or 22RV1 cells that express CBP/P300 proteins were treated with GNE-781 or the bivalent compounds; endogenous in cells; host or cells: LNCaP (clone FGC); details: single dose, FIG. 8
Method: as §1, §2, §3

T2 sequence (Q92793 whole entry): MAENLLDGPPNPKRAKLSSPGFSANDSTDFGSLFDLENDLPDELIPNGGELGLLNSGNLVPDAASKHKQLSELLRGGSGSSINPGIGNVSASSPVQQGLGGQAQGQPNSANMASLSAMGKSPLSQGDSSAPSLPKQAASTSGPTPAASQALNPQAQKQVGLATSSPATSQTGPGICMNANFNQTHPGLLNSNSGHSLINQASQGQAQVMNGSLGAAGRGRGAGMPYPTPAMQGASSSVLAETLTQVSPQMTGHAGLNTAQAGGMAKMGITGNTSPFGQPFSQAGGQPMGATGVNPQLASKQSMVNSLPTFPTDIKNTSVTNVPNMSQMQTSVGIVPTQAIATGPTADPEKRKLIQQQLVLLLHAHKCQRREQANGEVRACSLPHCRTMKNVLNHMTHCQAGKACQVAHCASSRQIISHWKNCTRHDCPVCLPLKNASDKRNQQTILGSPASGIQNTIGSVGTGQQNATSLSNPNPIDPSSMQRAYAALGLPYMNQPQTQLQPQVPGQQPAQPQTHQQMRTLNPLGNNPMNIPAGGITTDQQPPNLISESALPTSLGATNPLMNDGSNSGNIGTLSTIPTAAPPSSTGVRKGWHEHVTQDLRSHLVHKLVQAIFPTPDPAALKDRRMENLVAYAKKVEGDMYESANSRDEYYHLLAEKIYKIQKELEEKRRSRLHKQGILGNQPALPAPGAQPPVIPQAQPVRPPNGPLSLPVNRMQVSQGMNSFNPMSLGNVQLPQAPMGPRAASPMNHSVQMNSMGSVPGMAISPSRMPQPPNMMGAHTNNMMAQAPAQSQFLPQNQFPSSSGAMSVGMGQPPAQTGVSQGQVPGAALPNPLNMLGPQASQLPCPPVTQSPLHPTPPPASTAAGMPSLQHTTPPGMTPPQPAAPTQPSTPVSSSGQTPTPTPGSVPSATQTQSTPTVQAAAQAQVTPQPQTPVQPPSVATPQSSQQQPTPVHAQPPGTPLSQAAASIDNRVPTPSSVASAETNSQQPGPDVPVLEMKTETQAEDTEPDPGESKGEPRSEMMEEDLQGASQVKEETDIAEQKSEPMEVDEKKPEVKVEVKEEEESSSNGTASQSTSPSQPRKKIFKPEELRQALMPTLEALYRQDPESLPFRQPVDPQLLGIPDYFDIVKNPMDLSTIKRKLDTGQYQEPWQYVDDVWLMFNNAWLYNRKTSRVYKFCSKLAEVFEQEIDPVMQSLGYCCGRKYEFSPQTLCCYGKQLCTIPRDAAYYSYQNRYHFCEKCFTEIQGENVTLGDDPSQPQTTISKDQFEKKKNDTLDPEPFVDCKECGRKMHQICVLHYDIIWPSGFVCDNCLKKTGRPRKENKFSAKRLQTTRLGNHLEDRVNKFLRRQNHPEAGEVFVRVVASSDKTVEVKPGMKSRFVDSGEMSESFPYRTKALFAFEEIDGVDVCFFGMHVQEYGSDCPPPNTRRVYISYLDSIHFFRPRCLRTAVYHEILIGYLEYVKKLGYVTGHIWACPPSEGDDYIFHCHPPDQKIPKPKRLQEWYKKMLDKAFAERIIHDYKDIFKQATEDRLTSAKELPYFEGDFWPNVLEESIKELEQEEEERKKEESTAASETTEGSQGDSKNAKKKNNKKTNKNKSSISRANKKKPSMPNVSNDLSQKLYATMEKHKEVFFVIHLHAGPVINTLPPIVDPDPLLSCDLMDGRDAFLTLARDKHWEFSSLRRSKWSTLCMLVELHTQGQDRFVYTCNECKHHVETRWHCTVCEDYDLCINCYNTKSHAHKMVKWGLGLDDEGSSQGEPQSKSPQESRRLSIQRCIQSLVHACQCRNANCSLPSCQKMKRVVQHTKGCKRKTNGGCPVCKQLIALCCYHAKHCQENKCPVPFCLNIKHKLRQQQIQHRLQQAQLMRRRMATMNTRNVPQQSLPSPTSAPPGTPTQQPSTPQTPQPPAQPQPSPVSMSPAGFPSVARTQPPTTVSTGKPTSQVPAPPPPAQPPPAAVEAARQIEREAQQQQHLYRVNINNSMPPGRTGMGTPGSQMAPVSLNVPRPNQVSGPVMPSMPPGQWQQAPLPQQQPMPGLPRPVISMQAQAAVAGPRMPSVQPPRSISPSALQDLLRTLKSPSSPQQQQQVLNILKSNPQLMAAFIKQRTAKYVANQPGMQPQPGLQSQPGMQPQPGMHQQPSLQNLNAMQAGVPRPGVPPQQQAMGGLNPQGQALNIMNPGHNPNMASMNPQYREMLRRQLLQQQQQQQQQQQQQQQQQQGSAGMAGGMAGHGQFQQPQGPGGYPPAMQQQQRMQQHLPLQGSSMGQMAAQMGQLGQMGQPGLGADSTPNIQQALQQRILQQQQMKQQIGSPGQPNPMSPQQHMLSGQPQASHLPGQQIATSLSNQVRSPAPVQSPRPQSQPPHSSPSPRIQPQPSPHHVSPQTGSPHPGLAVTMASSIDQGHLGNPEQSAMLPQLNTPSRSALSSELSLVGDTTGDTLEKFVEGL
T1 sequence (Q09472 whole entry): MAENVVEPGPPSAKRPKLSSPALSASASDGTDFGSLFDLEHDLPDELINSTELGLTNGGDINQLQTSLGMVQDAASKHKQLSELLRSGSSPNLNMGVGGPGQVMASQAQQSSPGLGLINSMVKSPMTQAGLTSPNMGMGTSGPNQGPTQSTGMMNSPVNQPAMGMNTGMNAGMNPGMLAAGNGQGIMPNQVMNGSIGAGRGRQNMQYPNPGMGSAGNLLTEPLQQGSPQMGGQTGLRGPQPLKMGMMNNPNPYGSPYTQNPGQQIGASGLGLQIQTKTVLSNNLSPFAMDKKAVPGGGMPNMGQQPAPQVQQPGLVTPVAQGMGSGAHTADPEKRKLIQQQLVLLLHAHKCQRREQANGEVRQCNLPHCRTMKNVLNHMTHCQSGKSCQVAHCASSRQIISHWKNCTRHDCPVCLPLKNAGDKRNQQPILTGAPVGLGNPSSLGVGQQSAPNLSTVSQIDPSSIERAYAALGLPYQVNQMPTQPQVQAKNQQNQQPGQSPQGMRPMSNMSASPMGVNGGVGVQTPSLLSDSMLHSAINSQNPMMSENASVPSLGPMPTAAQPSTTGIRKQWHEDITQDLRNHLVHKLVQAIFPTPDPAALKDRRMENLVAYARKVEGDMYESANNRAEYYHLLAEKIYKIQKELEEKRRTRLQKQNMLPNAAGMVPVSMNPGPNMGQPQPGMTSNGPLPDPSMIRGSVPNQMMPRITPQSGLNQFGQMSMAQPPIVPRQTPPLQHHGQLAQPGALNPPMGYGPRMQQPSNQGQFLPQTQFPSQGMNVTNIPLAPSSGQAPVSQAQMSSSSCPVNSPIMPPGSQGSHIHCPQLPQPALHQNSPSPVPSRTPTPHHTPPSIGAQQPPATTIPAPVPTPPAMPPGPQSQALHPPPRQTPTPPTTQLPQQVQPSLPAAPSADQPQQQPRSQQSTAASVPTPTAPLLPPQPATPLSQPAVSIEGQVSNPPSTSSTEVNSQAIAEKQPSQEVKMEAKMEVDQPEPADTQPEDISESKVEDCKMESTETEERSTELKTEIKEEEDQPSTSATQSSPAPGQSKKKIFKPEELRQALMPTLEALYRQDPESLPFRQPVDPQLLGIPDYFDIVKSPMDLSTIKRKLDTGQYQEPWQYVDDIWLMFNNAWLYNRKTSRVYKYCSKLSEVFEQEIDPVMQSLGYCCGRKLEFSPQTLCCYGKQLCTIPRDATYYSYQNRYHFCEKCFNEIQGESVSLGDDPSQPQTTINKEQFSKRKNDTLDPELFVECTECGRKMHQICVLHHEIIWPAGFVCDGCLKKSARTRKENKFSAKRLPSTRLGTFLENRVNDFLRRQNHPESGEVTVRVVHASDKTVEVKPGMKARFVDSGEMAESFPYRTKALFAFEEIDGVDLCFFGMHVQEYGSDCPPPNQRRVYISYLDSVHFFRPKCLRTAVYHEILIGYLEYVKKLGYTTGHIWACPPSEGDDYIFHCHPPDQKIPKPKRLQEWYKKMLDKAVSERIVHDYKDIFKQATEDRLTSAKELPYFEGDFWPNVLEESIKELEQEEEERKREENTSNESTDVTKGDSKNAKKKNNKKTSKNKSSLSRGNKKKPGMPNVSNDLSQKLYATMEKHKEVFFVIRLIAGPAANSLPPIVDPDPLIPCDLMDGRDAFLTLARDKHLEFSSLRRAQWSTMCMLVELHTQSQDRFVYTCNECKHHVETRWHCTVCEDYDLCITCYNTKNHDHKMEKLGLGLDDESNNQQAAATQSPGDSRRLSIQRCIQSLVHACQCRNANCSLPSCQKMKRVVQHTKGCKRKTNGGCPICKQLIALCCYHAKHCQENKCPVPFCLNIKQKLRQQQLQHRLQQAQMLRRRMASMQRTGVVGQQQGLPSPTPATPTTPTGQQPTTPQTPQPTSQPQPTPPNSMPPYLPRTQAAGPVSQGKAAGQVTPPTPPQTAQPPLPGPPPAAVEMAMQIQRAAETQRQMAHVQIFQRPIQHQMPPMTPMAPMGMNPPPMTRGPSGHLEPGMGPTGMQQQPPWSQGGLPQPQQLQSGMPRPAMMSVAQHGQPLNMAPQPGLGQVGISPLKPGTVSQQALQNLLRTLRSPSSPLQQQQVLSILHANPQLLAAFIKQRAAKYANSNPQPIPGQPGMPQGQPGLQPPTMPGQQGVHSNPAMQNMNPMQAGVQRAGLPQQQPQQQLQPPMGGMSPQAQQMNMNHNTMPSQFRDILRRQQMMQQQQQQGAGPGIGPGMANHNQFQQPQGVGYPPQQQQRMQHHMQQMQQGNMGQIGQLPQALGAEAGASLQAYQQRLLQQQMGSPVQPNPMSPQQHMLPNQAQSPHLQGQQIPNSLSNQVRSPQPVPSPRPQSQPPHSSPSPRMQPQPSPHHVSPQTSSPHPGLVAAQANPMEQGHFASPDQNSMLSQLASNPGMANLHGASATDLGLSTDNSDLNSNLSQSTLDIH

In the case of CNC(=O)N1CCc2c(c(N3CCCc4cc(-c5cnn(C)c5)c(C(F)F)cc43)nn2C2CCN(C(=O)CCCCCNc3cccc4c3C(=O)N(C3CCC(=O)NC3=O)C4=O)CC2)C1 (stereo not drawn) [P-034, 3-(7-(difluoromethyl)-6-(1-methyl-1H-pyrazol-4-yl)-3,4-dihydroquinolin-1(2H)-yl)-1-(1-(6-((2-(2,6-dioxopiperidin-3-yl)-1,3-dioxoisoindolin-4-yl)amino)hexanoyl)piperidin-4-yl)-N-methyl-1,4,6,7-tetrahydro-5H-pyrazolo[4,3-c]pyridine-5-carboxamide], the “degradation of P300 in combination with pomalidomide, MG-132, Bortezomib or MLN4924” value [1] is reported as “compromised; also recorded: could be neutralized”, the P300 protein levels [1] is reported as “a chemical modification that disrupted cereblon binding abolished P300 degradation” and the P300 protein levels [2] is reported as “a chemical modification that disrupted cereblon binding abolished P300 degradation”. The “P300 protein levels in xenograft tumors” value [3] was “significantly reducing”, the “CBP protein levels in xenograft tumors” value [4] was “significantly reducing” and the “degradation of CBP in combination with pomalidomide, MG-132, Bortezomib or MLN4924” value [5] was “compromised; also recorded: could be neutralized”.

With CC(=O)N1CCc2c(c(N3CCCc4cc(-c5cnn(C)c5)c(C(F)F)cc43)nn2C2CCN(C(=O)CCCCCNc3cccc4c3C(=O)N(C3CCC(=O)NC3=O)C4=O)CC2)C1 (stereo not drawn) [P-100, 4-((6-(4-(5-acetyl-3-(7-(difluoromethyl)-6-(1-methyl-1H-pyrazol-4-yl)-3,4-dihydroquinolin-1(2H)-yl)-4,5,6,7-tetrahydro-1H-pyrazolo[4,3-c]pyridin-1-yl)piperidin-1-yl)-6-oxohexyl)amino)-2-(2,6-dioxopiperidin-3-yl)isoindoline-1,3-dione] the “degradation of P300 in combination with pomalidomide, MG-132, Bortezomib or MLN4924” value [1] was “compromised; also recorded: could be neutralized”, the P300 protein levels [1] was “reduced P300 protein levels in a concentration-dependent manner” and the P300 protein levels [2] was “reduced P300 protein levels in a concentration-dependent manner”. For the same compound, the “P300 protein levels in xenograft tumors” value [3] was “significantly reducing”, the “CBP protein levels in xenograft tumors” value [4] was “significantly reducing” and the “degradation of CBP in combination with pomalidomide, MG-132, Bortezomib or MLN4924” value [5] was “compromised; also recorded: could be neutralized”.
